Measurements published in ChEMBL document CHEMBL1134176, “Structure-activity relationships of novel anti-malarial agents. Part 2: cinnamic acid derivatives” (Bioorg Med Chem Lett, 2001).

Each compound was assayed on Plasmodium falciparum (assay: Inhibitory activity against Plasmodium falciparum Dd2 in erythrocytes).
Type: functional, organism-based

Row | IC50 [nM] | Structure (SMILES)
1 | 1200 | Cc1ccc(CC(=O)Nc2ccc(NC(=O)/C=C/c3ccc(C(C)C)cc3)cc2C(=O)c2ccccc2)cc1
2 | 40000 | Cc1ccc(CC(=O)Nc2ccc(NC(=O)/C=C/c3ccc(C=O)cc3)cc2C(=O)c2ccccc2)cc1
3 | 5700 | Cc1ccc(CC(=O)Nc2ccc(NC(=O)/C=C/c3ccc(C(F)(F)F)cc3)cc2C(=O)c2ccccc2)cc1
4 | 1200 | CCc1ccc(/C=C/C(=O)Nc2ccc(NC(=O)Cc3ccc(C)cc3)c(C(=O)c3ccccc3)c2)cc1
5 | 3000 | Cc1ccc(CC(=O)Nc2ccc(NC(=O)/C=C/c3ccc(C(C)(C)C)cc3)cc2C(=O)c2ccccc2)cc1
6 | > 100000 | Cc1ccc(CC(=O)Nc2ccc(NC(=O)/C=C/c3ccc(C#N)cc3)cc2C(=O)c2ccccc2)cc1
7 | 43000 | Cc1ccc(CC(=O)Nc2ccc(NC(=O)/C=C/c3ccc(C=C(C#N)C#N)cc3)cc2C(=O)c2ccccc2)cc1
8 | 6500 | Cc1ccc(CC(=O)Nc2ccc(NC(=O)/C=C/c3ccc([N+](=O)[O-])cc3)cc2C(=O)c2ccccc2)cc1
9 | 5500 | Cc1ccc(CC(=O)Nc2ccc(NC(=O)/C=C/c3ccc(N)cc3)cc2C(=O)c2ccccc2)cc1
10 | 1400 | Cc1ccc(/C=C/C(=O)Nc2ccc(NC(=O)Cc3ccc(C)cc3)c(C(=O)c3ccccc3)c2)cc1
11 | 5500 | Cc1ccc(CC(=O)Nc2ccc(NC(=O)/C=C/c3ccc(Cl)cc3)cc2C(=O)c2ccccc2)cc1
12 | 1300 | COc1ccc(/C=C/C(=O)Nc2ccc(NC(=O)Cc3ccc(C)cc3)c(C(=O)c3ccccc3)c2)cc1
13 | 1000 | COC(=O)c1ccc(/C=C/C(=O)Nc2ccc(NC(=O)Cc3ccc(C)cc3)c(C(=O)c3ccccc3)c2)cc1
14 | 3200 | Cc1ccc(CC(=O)Nc2ccc(NC(=O)/C=C/c3ccc(Br)cc3)cc2C(=O)c2ccccc2)cc1
15 | 1100 | CCCCOc1ccc(/C=C/C(=O)Nc2ccc(NC(=O)Cc3ccc(C)cc3)c(C(=O)c3ccccc3)c2)cc1
16 | 850 | CCOc1ccc(/C=C/C(=O)Nc2ccc(NC(=O)Cc3ccc(C)cc3)c(C(=O)c3ccccc3)c2)cc1
17 | 5800 | Cc1ccc(CC(=O)Nc2ccc(NC(=O)/C=C/c3ccccc3)cc2C(=O)c2ccccc2)cc1
18 | 200 | CCCOc1ccc(/C=C/C(=O)Nc2ccc(NC(=O)Cc3ccc(C)cc3)c(C(=O)c3ccccc3)c2)cc1
19 | 9.3 | CCCCN(CCCC)CCC(O)c1cc2c(Cl)cc(Cl)cc2c2cc(C(F)(F)F)ccc12 (stereo unspecified) [HALOFANTRINE]

Row | Structure (SMILES) | IC50 [nM]
20 | Cc1ccc(CC(=O)Nc2ccc(NC(=O)CCc3ccccc3)cc2C(=O)c2ccccc2)cc1 | 2700
21 | C[C@@H]1CC[C@H]2[C@@H](C)C(=O)O[C@@H]3O[C@@]4(C)CC[C@@H]1[C@]32OO4 [ARTEMISININ] | 18
22 | O=C1C(O)=C([C@H]2CC[C@H](c3ccc(Cl)cc3)CC2)C(=O)c2ccccc21 [ATOVAQUONE] | 1
23 | CC1(C)N=C(N)N=C(N)N1c1ccc(Cl)cc1 [CYCLOGUANIL] | 2200
24 | OC(c1cc(C(F)(F)F)nc2c(C(F)(F)F)cccc12)C1CCCCN1 (stereo unspecified) [MEFLOQUINE] | 57
25 | CCc1nc(N)nc(N)c1-c1ccc(Cl)cc1 [PYRIMETHAMINE] | 2500
26 | C=C[C@H]1CN2CC[C@H]1C[C@H]2[C@H](O)c1ccnc2ccc(OC)cc12 [QUININE] | 380
